Experimental data published in patent US10555965B2, “Environment-responsive hyaluronic acid nanoparticles” (Industry-University Cooperation Foundation Hanyang …, priority 2015, dated 2020).

Assays:
HepG2 cells = experiment: Apoptosis/necrosis by flow cytometry (Annexin-V-FITC/PI); format: cell-based; settings: 12 hours treatment, nanoparticles 1 mg/mL or 2DG 0.25 mg/mL
Procedure: The 2-deoxy-D-glucose was used as a glycolytic inhibitor. The ATP content was measured using an ATP Colorimetric/Fluorometric Assay Kit (Biovision). Lactate secretion was quantified using an EnzyChromTM L-Lactate Assay Kit (Bioassay). In cell fate, an effect of the HA-PBA nanoparticles on the inhibition of glycolysis was examined using a flow cytometer (BD FACS Caliber). Briefly, the HepG2 cells were treated with the HA-PBA nanoparticles or 2DG for 12 hours. An Annexin-V-FITC antibody and propidium iodide (PI) were used as markers for apoptotic and necrotic cell death. The HepG2 cells were seeded in a 24-well tissue culture plate at a density of 1×10^4 cells/well, and incubated at 37° C. for 24 hours under 5% CO2 conditions. The cells were washed with PBS, and treated for 8 hours with a low or high glucose medium including the HA-PBA nanoparticles (1 mg/mL) having a degree of […]. Also, prior to treatment with the HA-PBA nanoparticles, the cells were pretreated with a hyaluronate (2.5 mg/mL) dissolved in a low glucose medium. The medium was replaced with a fresh medium daily. At a predetermined point of time, the cells were treated with EZ-Cytox for 2 hours, and the optical density at 450 nm was measured using a UV/VIS spectrophotometer. The growth rate of the cells was calculated from a change in the number of the cells in 3 days of incubation. […]

HepG2 tumor = experiment: In vivo therapeutic effect (liver cancer growth inhibition); set-up: species or system mice; settings: intravenous, 5 times for a week, monitored 17 days
Procedure: To evaluate a therapeutic effect of the HA-PBA nanoparticles, the tumor-bearing mouse model of Experimental Example 7 was prepared.
The HA-PBA nanoparticles (20 mg kg), paclitaxel (10 mg/kg), and PBS were intravenously injected into the caudal veins of the tumor-bearing mice (injected 5 times for a week). Changes in tumor volume were monitored for 2 weeks (n=7). Tumor tissues were extracted from the mice, and embedded into an optimal cutting temperature (OCT) compound. The tumor tissues were cut into sections (12 μm thick), and stained with hematoxylin and eosin (H&E) and a DeadEnd™ colorimetric TUNEL system (Promega, USA).
When the tumor volumes of the mice reached approximately 90 mm3, the HA-PBA nanoparticles, paclitaxel, and PBS were injected into the mice.

O=CC[C@@H](O)[C@H](O)[C@H](O)CO [2DG, 2-deoxy-D-glucose]
in-late apoptotic HepG2 cells (HepG2 cells; control 5.77%): 4.65% | apoptotic HepG2 cells (HepG2 cells; control 6.76%): 18.81%

CC(=O)O[C@H]1C(=O)[C@@]2(C)[C@H]([C@H](OC(=O)c3ccccc3)[C@]3(O)C[C@H](OC(=O)[C@H](O)[C@@H](NC(=O)c4ccccc4)c4ccccc4)C(C)=C1C3(C)C)[C@]1(OC(C)=O)CO[C@@H]1C[C@@H]2O [paclitaxel]
weight loss (HepG2 tumor): No weight loss | tumor growth rate compared to PBS-treated group (HepG2 tumor; nanoparticles 20 mg kg, paclitaxel 10 mg/kg): inhibited tumor growth rate
